From patent publication US7166612B2, “Methods for reducing platelet activation platelet aggregaton or thrombosis” (Beth Israel Deaconess Medical Center, priority 2001, dated 2007)

Key:
[1] = test system: PGE1-induced cAMP levels in platelets; test: augmentation of PGE1-induced cAMP levels in platelets; assay type: cell-based, human; conditions: in words
Protocol: (A) Compound was tested for its ability to inhibit SFLLR-, U46619-, ADP-, PMA-, and collagen I-induced platelet α-granule secretion. (B) The effect of the compound on PGE1-stimulated cAMP elevation was analyzed. Platelets were incubated with increasing doses of pyridazinone compound for 30 minutes prior to the 2 minute incubation with PGE1. Platelets were subsequently lysed and cAMP level was assayed using a commercially available ELISA kit (Liao et al., 1998, Eur J Pharmacol 349, 107–14). […] Error bars represent mean ±1 SD (n=4), *P<0.001.
One frequent target of anti-platelet agents is phosphodiesterase III (PDE III). […] The assay is performed as described by Liao et al., 1998, Eur J Pharmacol 349,107–114, incorporated herein by reference. Briefly, aliquots of PRP are exposed to increasing concentrations of the agent for 20 minutes. The PRP is then challenged with 1 μM PGE1 for 2 min The reaction is stopped by adding 10 mM EDTA, followed immediately by boiling for 2 min. The mixture is cooled to 4° C. and the precipitated protein is pelleted. cAMP content in the supernatant is quantitated using an enzyme immunoassay kit (Pharmacia-Amersham, NJ) according to the instructions of the manufacturer.
In order to assess whether the compounds useful according to the invention might act through inhibition phosphodiesterase III, each was tested for its effect on PGE1-induced cAMP increase. Determination of platelet cAMP levels was performed as described by Liao et al., 1998, supra. Aliquots of PRP were exposed to increasing concentrations of the indicated compounds for 20 min. PRP was then challenged with 1 μM PGE1 for 2 min. The reaction was stopped with the addition of 10 mM EDTA followed immediately by boiling for 2 min. The mixture was then cooled to 4° C. and the precipitated protein was pelleted. Cyclic AMP content in the supernatant was then quantified using an enzyme immunoassay kit (Pharmacia-Amersham, NJ) according to the instructions of the manufacturer.

platelet GPIIbIIIa = test: SFLLR-induced GPIIbIIIa activation (PAC-1 antibody, flow cytometry); assay type: cell-based, human; conditions: in words
Protocol: In order to assay platelet activation by cell surface marker expression, fresh PRP is isolated from donors who have not ingested aspirin for two weeks prior to donation. PRP (40 μl) is incubated with known or suspected inhibitor in DMSO or DMSO alone for 15 min. The sample is then incubated with the indicated agonist (e.g., SFLLR) for 10 min. Following incubation of the sample with the indicated agonist, 10 μl of reaction mixture is transferred to 5 μl of phycoerythrin (PE)-conjugated AC 1.2 anti-P-selectin antibody (for assessment of P-selectin surface expression) or fluorescein isothiocyanate (FITC)-conjugated PAC-1 antibody (for assessment of GPIIbIIIa activation). PBS (500 μl) is added to the sample after a 20 min incubation and the platelets are analyzed immediately by flow cytometry. […] A 530/30 band pass filter is used for FL-1 fluorescence. A 585/42 band pass filter is used for FL-2 fluorescence. FITC is measured in the FL-1 channel and PE is measured in the FL-2 channel. Data are analyzed using, for example, CellQuest software on a Macintosh PowerPC, or their equivalents.
Compounds were also tested by flow cytometry for the inhibition of SFLLR-induced GPIIbIIIa activation and P-selectin expression. […] PBS (500 μl) was added to the sample after a 20 min incubation and the platelets were analyzed immediately by flow cytometry. […] A 530/30 band pass filter was used for FL-1 fluorescence. […]

## CC1CC(=O)NN=C1c1ccc(N)c([N+](=O)[O-])c1 (stereo not drawn) [6-(4-Amino-3-nitro-phenyl)-5-methyl-4,5-dihydro-2H-pyridazin-3-one]
[1]
  effect on PGE1-stimulated cAMP levels in platelets: augments PGE1-induced cAMP levels in a dose-dependent manner
[1]; listed as Pyridazinone compound
  effect on PGE1-stimulated cAMP levels in platelets: augment PGE1-induced cAMP level increase in platelets in a dose-dependent manner
Platelet GPIIbIIIa
  SFLLR-induced αIIbβ3 activation measured using PAC-1 antibodies: inhibited
